Laboratory results as given in patent publication US8133729B2, “Biomimetic urothelium” (The University of York, priority 2002, dated 2012).
Entries after “also recorded” stand apart in the source; their conditions may differ.

Columns and labels:
[1] = biological target: T1, amiloride-sensitive sodium channels (Homo sapiens, UniProt P37088+P51168+P51170); experiment: Polarised sodium ion channel distribution: short circuit current and transepithelial potential difference on amiloride exposure; assay type: cell-based
T1 construct: The exposure of the apical surface of the urothelial tissue to amiloride reduced both the voltage and the current; endogenous in cells; host or cells: in vitro cultured, differentiated human urothelial cell sheet
T1 sequence (P51170 whole entry): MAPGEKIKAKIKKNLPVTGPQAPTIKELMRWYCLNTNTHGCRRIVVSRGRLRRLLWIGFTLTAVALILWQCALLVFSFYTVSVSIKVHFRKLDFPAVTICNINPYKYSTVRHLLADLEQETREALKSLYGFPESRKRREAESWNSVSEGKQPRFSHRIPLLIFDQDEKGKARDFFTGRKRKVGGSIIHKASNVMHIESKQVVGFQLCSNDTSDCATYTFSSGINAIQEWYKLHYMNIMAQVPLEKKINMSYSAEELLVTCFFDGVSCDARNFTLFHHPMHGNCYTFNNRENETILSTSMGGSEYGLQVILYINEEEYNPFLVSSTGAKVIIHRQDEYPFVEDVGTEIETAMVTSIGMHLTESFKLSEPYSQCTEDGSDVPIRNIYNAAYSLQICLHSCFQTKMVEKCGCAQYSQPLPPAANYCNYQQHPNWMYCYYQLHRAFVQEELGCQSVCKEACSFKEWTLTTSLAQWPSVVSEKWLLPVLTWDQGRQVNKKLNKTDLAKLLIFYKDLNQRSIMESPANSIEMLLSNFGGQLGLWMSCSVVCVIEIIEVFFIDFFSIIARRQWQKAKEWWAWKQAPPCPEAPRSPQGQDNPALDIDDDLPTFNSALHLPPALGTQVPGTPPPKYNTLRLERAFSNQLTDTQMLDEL
T1 sequence (P37088 whole entry): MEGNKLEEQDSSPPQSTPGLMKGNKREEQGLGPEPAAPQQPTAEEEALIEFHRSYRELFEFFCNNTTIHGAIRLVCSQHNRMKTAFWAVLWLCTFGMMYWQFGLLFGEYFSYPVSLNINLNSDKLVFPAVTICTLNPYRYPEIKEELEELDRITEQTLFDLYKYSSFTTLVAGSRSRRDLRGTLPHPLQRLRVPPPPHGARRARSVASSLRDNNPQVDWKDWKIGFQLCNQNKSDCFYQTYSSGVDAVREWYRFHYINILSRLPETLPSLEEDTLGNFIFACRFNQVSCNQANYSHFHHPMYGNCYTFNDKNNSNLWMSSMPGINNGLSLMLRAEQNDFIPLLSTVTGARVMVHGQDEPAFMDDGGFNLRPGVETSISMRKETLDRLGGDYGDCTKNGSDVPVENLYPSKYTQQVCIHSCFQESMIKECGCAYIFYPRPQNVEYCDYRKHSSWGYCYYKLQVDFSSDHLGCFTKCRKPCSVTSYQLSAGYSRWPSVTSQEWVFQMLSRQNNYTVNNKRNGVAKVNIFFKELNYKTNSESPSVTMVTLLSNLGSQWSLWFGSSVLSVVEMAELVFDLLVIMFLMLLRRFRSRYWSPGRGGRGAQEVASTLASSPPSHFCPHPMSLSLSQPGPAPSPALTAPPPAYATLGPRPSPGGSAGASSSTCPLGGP
T1 sequence (P51168 whole entry): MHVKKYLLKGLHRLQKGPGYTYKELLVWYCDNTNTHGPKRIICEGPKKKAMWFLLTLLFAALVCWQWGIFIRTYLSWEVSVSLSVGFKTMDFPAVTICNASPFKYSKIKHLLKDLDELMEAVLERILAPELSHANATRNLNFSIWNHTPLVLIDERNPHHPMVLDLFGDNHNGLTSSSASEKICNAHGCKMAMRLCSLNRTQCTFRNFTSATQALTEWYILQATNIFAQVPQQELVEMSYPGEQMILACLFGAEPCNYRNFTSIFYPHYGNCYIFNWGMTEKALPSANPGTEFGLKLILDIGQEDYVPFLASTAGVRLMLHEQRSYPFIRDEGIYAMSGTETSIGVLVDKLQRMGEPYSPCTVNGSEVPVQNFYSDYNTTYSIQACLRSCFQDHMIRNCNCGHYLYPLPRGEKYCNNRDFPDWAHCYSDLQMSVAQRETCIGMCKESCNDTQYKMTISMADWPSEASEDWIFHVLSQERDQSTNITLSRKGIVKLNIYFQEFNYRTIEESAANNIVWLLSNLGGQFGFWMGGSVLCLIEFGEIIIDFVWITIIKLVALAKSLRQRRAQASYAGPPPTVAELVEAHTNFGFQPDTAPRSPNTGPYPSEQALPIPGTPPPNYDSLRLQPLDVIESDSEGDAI
Method: (§1) Polarised Sodium Ion Channel Distribution. In order to determine the presence and correct spatial location of sodium ion channels, short circuit current and transepithelial potential difference were measured under voltage and current clamped conditions respectively.

Na^+—K^+ ATPase = experiment: Short circuit current and transepithelial potential difference on ouabain exposure; assay type: cell-based, human
Method: as §1

[2] = exposure of basal surface of in vitro cultivated urothelium
[3] = exposure of apical surface of in vitro cultivated urothelium

Compound | effect on transepithelial potential difference (voltage) ([1]; exposure of apical surface of in vitro cultivated urothelium, current clamped) | effect on short circuit current ([1]; exposure of apical surface of in vitro cultivated urothelium, voltage clamped) | effect on short circuit current [1, 2] | effect on transepithelial potential difference (voltage) [1, 2] | effect on short circuit current (Na^+—K^+ ATPase; [3]) | effect on transepithelial potential difference (voltage) (Na^+—K^+ ATPase; [3]) | effect on short circuit current (Na^+—K^+ ATPase; [2]) | effect on transepithelial potential difference (voltage) (Na^+—K^+ ATPase; [2])
N=C(N)NC(=O)c1nc(Cl)c(N)nc1N [amiloride] | reduced both the voltage and the current in a dose-dependent manner | dose-responsive decrease in short circuit current; also recorded: reduced both the voltage and the current in a dose-dependent manner | did not affect either the voltage or the current | did not affect either the voltage or the current |  |  |  | 
C[C@@H]1O[C@@H](O[C@H]2C[C@@H](O)[C@]3(CO)[C@H]4[C@H](O)C[C@]5(C)[C@@H](C6=CC(=O)OC6)CC[C@]5(O)[C@@H]4CC[C@]3(O)C2)[C@H](O)[C@H](O)[C@H]1O [ouabain] |  |  |  |  | only a minor effect on the measured voltage and current | only a minor effect on the measured voltage and current | marked reduction of both voltage and current | marked reduction of both voltage and current
